# Reference: ChEMBL document CHEMBL1147421, “Diamine derivatives with antiparasitic activities” (Bioorg Med Chem Lett, 2004)
# Where “and” joins values, the source holds several entries; their conditions need not be identical. Identical values can stand only once.
# Experiments:
# [1] = Antiparasitic activity against Leishmania promastigotes (Leishmania donovani); type: functional
# Plasmodium falciparum [2] = test: Antiparasitic activity against chloroquine-resistant Plasmodium falciparum W2; type: functional, organism-based
# Plasmodium falciparum [3] = test: Antiparasitic activity against Plasmodium falciparum D6; type: functional, organism-based
SMILES,EC50 [1],EC50 (Plasmodium falciparum [2]),EC50 (Plasmodium falciparum [2]; Plasmodium falciparum) [µM],EC50 (Plasmodium falciparum [3]; Plasmodium falciparum) [µM],EC50 (Plasmodium falciparum [3])
CCCCOc1ccc(CN(CCCCN)Cc2ccc(OCCCC)cc2)cc1,2470 nM and 3920 nM,2.9 µM,4.18,4.09,–
COc1cc(CN(CCCN)Cc2cc(OC)cc(OC)c2)cc(OC)c1.O=C(O)C(F)(F)F,9420 nM,Not Active,–,–,Not Active
COc1cccc(CN(CCCCN)Cc2cccc(OC)c2)c1.O=C(O)C(F)(F)F,10800 nM,–,6.1,–,Not Active
NCCCCN(Cc1ccccc1)Cc1ccc(OCc2ccccc2)cc1,370 nM,–,7.78,5.73,–
NCCCN(Cc1ccccc1)Cc1ccc(OCc2ccccc2)cc1,1370 nM,–,3.79,4.43,–
NCCCCN(Cc1ccc(OCc2ccccc2)cc1)Cc1ccc(OCc2ccccc2)cc1,1850 nM,–,4.88,3.2,–
NCCCCN(Cc1ccccc1)Cc1ccc(Cl)cc1.O=C(O)C(F)(F)F,1610 nM,Not Active,–,–,Not Active
CC(C)c1ccc(CN(CCCN)Cc2ccccc2)cc1,1580 nM,–,2.19,7.31,–
CC(C)c1ccc(CN(CCCCN)Cc2ccccc2)cc1,1880 nM,–,10.1,9.66,–
NCCCCN(Cc1ccccc1)Cc1ccc(C(=O)O)cc1.O=C(O)C(F)(F)F,10300 nM,Not Active,–,–,Not Active
NCCCCN(Cc1ccc(OCc2ccc(Cl)c(Cl)c2)cc1)Cc1ccc(OCc2ccc(Cl)c(Cl)c2)cc1,3820 nM and 3660 nM,2.59 µM and 0.69 µM,–,1.16,–
NCCCN(Cc1ccc(OCc2ccccc2)c(OCc2ccccc2)c1)Cc1ccc(OCc2ccccc2)c(OCc2ccccc2)c1,1640 nM,–,3.03,2.9,–
NCCCN(Cc1ccc(Cl)cc1)Cc1ccc(Cl)cc1.O=C(O)C(F)(F)F,8690 nM,–,10.1,–,Not Active
NCCCCN(Cc1ccccc1)Cc1ccc(Br)o1.O=C(O)C(F)(F)F,21000 nM,Not Active,–,–,Not Active
NCCCN(Cc1ccccc1)Cc1ccc(C(=O)O)cc1.O=C(O)C(F)(F)F,8970 nM,Not Active,–,–,Not Active
COc1ccc(CN(CCCN)Cc2ccc(OC)cc2)cc1.O=C(O)C(F)(F)F,10000 nM,–,9.34,–,Not Active
NCCCN(Cc1ccc(OCCc2ccccc2)cc1)Cc1ccc(OCCc2ccccc2)cc1.O=C(O)C(F)(F)F,14200 nM and 11100 nM,Not Active,–,4.25,6.94 µM
NCCCN(Cc1ccccc1)Cc1ccc(Cl)cc1.O=C(O)C(F)(F)F,1860 nM,–,7.7,–,Not Active
NCCCCN(Cc1ccc(OCCCc2ccccc2)cc1)Cc1ccc(OCCCc2ccccc2)cc1,2460 nM and 2960 nM,2.53 µM,3.07,1.12,1.04 µM
NCCCN(Cc1ccc(OCc2ccccc2)cc1)Cc1ccc(OCc2ccccc2)cc1,1120 nM,–,6.03,4.99,–
NCCCN(Cc1ccc(OCc2ccc(Cl)c(Cl)c2)cc1)Cc1ccc(OCc2ccc(Cl)c(Cl)c2)cc1,970 nM and 2570 nM,4.11 µM,3.2,1.34,1.54 µM
CC(C)(C)c1ccc(COc2ccc(CN(CCCCN)Cc3ccc(OCc4ccc(C(C)(C)C)cc4)cc3)cc2)cc1,8920 nM and 3000 nM,6.42 µM and 2.09 µM,–,1.07,–
NCCCN(Cc1ccc(-c2ccc(Br)cc2)o1)Cc1ccc(-c2ccc(Br)cc2)o1.O=C(O)C(F)(F)F,8510 nM,Not Active,–,5.62,–
NCCCCN(Cc1ccc(Cl)cc1)Cc1ccc(Cl)cc1.O=C(O)C(F)(F)F,3770 nM,Not Active,–,–,Not Active
NCCCN(Cc1ccccc1)Cc1ccccc1.O=C(O)C(F)(F)F,24200 nM,Not Active,–,–,Not Active
COc1cc(CN(CCCN)Cc2ccc(OCc3ccccc3)c(OC)c2)ccc1OCc1ccccc1,670 nM,–,2.81,2.97,–
COc1cc(CN(CCCCN)Cc2ccc(OCc3ccccc3)c(OC)c2)ccc1OCc1ccccc1,1830 nM,–,1.68,1.07,–
C[C@@H]1[C@H](O)[C@@H](C)/C=C/C=C/CC/C=C/C=C/C=C/C=C/[C@H](O[C@@H]2O[C@H](C)[C@@H](O)[C@H](N)[C@@H]2O)C[C@@H]2O[C@](O)(C[C@@H](O)C[C@@H](O)[C@H](O)CC[C@@H](O)C[C@@H](O)CC(=O)O[C@H]1C)C[C@H](O)[C@H]2C(=O)O,10 nM,–,–,–,–
CCN(CC)CCCC(C)Nc1ccnc2cc(Cl)ccc12 (stereo unspecified) [CHLOROQUINE],–,–,0.31,0.014,–
N=C(N)c1ccc(OCCCCCOc2ccc(C(=N)N)cc2)cc1 [PENTAMIDINE],1350 nM,–,–,–,–
